The values below come from US20230310628A1, “Multi-Targeted Multi-Valent Ligand Drug Particles for the Treatment and Prevention of Diseases and Conditions” (priority 2017, published 2023).

Each structure is given as a SMILES string.

This data set relates to cell lines expressing HER2 and EGFR. As to the kind of experiment: Cytotoxicity studies in vitro, free versus liposomal doxorubicin. The conditions noted are these: compared with liposomal doxorubicin. It counts as cell-based, human.

Procedure: Cytotoxicity studies were conducted with doxorubicin as it is the staple drug for liposomal delivery.
For cytotoxicity studies, cells cultured overnight in 96-well plates (10*10^3 cells/well) were incubated with doxorubicin-load liposomes (100 μg/ml with 1/3 dilutions) at 37° C. for 4 hr, washed with PBS, and grown in medium for 3 additional days. Cell viability was analyzed by MTT assay.

For the compound `COc1cccc2c1C(=O)c1c(O)c3c(c(O)c1C2=O)C[C@@](O)(C(=O)CO)C[C@@H]3O[C@H]1C[C@H](N)[C@H](O)[C@H](C)O1` [free doxorubicin, doxorubicin], the “effectiveness in cytotoxicity studies in vitro” value is recorded as “most effective”.
